According to article PMC6083370, “Influence of OATPs on Hepatic Disposition of Erlotinib Measured With Positron Emission Tomography” (Clinical Pharmacology and Therapeutics, 2017):
Where “and” joins values, the source holds several entries; their conditions need not be identical. Equal entries are not always repeated. Where two headings read alike, the source gives them in different places.

Legend:
OATP2B1 (SLCO2B1) = biological target: T1, OATP2B1 (SLCO2B1) (Homo sapiens, UniProt O94956); conditions: for Michaelis constant (K m) of the saturable component of OATP2B1‐specific uptake: 7.5 min, erlotinib 0.05–2.05 μM, ± standard error; for effect on [^11C]erlotinib uptake in OATP2B1 overexpressing cells: erlotinib 1 μM, cyclosporine A 10 μM, rifampicin 100 μM, 5 min
T1 sequence (O94956 1-709): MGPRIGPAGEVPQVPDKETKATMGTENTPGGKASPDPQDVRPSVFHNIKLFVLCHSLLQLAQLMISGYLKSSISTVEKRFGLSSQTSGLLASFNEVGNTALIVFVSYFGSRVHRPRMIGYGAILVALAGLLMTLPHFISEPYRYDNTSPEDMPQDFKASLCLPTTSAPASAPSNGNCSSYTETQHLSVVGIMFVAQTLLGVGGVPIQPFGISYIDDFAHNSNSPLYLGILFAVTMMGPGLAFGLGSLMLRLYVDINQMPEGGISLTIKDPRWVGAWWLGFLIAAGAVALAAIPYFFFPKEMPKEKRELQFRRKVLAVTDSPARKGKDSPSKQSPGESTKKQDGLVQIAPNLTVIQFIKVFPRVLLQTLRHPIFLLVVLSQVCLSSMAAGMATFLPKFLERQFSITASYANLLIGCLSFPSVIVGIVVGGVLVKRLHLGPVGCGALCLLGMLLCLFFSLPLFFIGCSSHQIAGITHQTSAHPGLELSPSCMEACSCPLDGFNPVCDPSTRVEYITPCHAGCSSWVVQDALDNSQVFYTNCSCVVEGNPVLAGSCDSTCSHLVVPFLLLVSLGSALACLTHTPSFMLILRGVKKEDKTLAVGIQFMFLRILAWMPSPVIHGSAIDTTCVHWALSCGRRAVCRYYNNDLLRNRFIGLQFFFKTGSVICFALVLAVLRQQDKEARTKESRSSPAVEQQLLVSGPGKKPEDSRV
Method: OATP overexpression was confirmed by Western blotting. Functionality of the OATPs was verified by [^3H]estrone-3-sulfate uptake experiments. A431 cells transfected with the empty vector were used as a negative control. All cell lines were cultured in Dulbecco's modified eagle medium supplemented with 10% fetal bovine serum, 2 mM L-glutamine, 100 units/mL penicillin and 100 µg/mL streptomycin. […] On the day of the experiment, growth medium was aspired and cells were washed with pre-warmed transport buffer (Hank's balanced salt solution supplemented with 10 mM N-2-hydroxyethylpiperazine-N-2-ethane sulfonic acid). […] Then the drug solutions were removed and cells were washed with pre-warmed transport buffer. […] For time dependency experiments, pre-warmed transport buffer was added and cells were incubated for 30 min. […] For concentration dependency experiments, pre-warmed transport buffer was added and cells were incubated for 30 min. […] In all experiments, cell count was determined on separate 24-well tissue culture plates before or after each experiment. In all experiments, radiotracer solutions were aspired following incubation and cells were washed twice with ice-cold transport buffer. […] Each inhibition experiment was performed 2 times with 3 technical replicates each and radioactivity in cells was corrected for radioactive decay, normalized to 10^6 cells and expressed as percent of vector control (% control). The time dependency experiment was performed once with 3 technical replicates and radioactivity in cells was corrected for radioactive decay and expressed as percent of applied dose per 10^6 cells (%AD/10^6 cells). The concentration dependency experiment was performed once with 3 technical replicates and radioactivity in cells was corrected for radioactive decay. Kinetic parameters were determined using a previously described method.^2 In brief, cellular radioactivity uptake was converted into units of pmol/min/10^6 cells. OATP2B1-specific uptake of erlotinib was determined by subtracting the uptake into cells transfected with the empty vector from the uptake into cells transfected with OATP2B1. The following equation was used to obtain kinetic parameters:
where v is the uptake velocity of erlotinib (pmol/min/10^6 cells), S is the erlotinib concentration in the transport buffer (µM), Km is the Michaelis constant (µM), Vmax is the maximum uptake velocity (pmol/min/10^6 cells), and Pdif is the non-saturable uptake clearance (µL/min/10^6 cells). Curve fitting was performed by the non-linear regression method with a modified Michaelis-Menten model according to equation 1 using Prism 6.0 software (GraphPad Software).

[1] = parameters: method as in PMID 23887590; conditions: following ritonavir pretreatment; cited from earlier work
[2] = tested on: organic anion transporter 3 (OAT3/SLC22A8); parameters: method as in PMID 20304939, PMID 21088257; conditions: cited from earlier work
OATP1B1 [3] = conditions: cited from earlier work
[4] = Tolerability of study medication in healthy volunteers; format: in vivo, human; conditions: microdose (<10 μg) i.v. and 300 mg oral
Method: (§1) One female and five male healthy volunteers (mean age: 27 ± 6 years, mean weight: 79 ± 7 kg) were enrolled in the study. […] Radioactivity in the upper abdominal region was measured over 90 min by employing a consecutive frame sequence of 1 × 15, 3 × 5, 3 × 10, 2 × 30, 3 × 60, 2 × 150, and 16 × 300 sec. In parallel to PET imaging, serial blood samples were drawn from the radial artery for the first 2.5 min, followed by samples at 3.5, 5, 10, 20, 30, 40, 60, and 80 min after radiotracer injection. For both PET scans, subjects were asked to fast for at least 6 h before radiotracer injection. Approximately 3 h before start of the second PET scan, an oral dose of 300 mg erlotinib (Tarceva, Roche Pharma, Nutley, NJ; two 150‐mg tablets) was administered. Ten blood samples were collected at baseline and hourly for 8 h and at ∼21 h after erlotinib intake. Blood samples were centrifuged to obtain plasma, which was kept at −80°C until analysis of erlotinib concentrations.

OATP2B1 [5] = conditions: read-out: IC50 for OATP2B1 inhibition; cited from earlier work
[6] = cited from earlier work
OCT1 (SLC22A1) = tested on: OCT1 (SLC22A1); parameters: method as in PMID 21088257; conditions: cited from earlier work
[7] = Plasma pharmacokinetics of unlabeled erlotinib after 300 mg oral dose (HPLC-UV); format: in vivo, human
Method: as §1, with “In parallel to PET imaging, serial blood samples were drawn from the radial artery for the first 2.5 min, followed by samples at 3.5, 5, 10, 20, 30, 40, 60, and 80 min after radiotracer injection.” left out, “Ten blood samples were collected at baseline and hourly for 8 h and at ∼21 h after erlotinib intake.” left out
Aliquots of blood and plasma were measured for radioactivity in a gamma‐counter, which was cross‐calibrated with the PET camera. […] The concentration of unlabeled erlotinib in plasma was determined by high‐performance liquid chromatography with ultraviolet detection (Supplementary Methods). Pharmacokinetic parameters of erlotinib in plasma were determined with the Kinetica 2000 software package, v. 3.0 (InnaPhase).
The concentration of unlabeled erlotinib in plasma was determined by high-performance liquid chromatography (HPLC) using a Dionex UltiMate 3000 system (Dionex Corp., Sunnyvale, USA) with ultraviolet (UV) detection at 331 nm. After the addition of 600 µL ice-cold methanol to 200 µL of plasma, the samples were centrifuged (13,000 g for 5 min) and 80 µL of clear supernatant was injected onto a Hypersil BDS-C18 column (5 µm, 250 x 4.6 mm I.D., Thermo Fisher Scientific, Inc, Waltham, USA), preceded by a Hypersil BDS-C18 pre-column (5 µm, 10 x 4.6 mm I.D.) and kept at 40°C. The mobile phase consisted of a continuous gradient mixed from aqueous ammonium acetate buffer (10 mM, pH = 5.0) (solvent A) and acetonitrile (solvent B) at a flow rate of 1.0 mL/min.

OATP1B1 [8] = conditions: read-out: IC50 for inhibition of OATP1B1; cited from earlier work
[9] = tested on: breast cancer resistance protein (BCRP/ABCG2); parameters: method as in PMID 20304939, PMID 21088257; conditions: cited from earlier work
OAT2 (SLC22A7) = tested on: OAT2 (SLC22A7); parameters: method as in PMID 21088257; conditions: cited from earlier work
OATP1B3 (SLCO1B3) = biological target: T2, OATP1B3 (SLCO1B3) (Homo sapiens, UniProt Q9NPD5); conditions: erlotinib 1 μM, cyclosporine A 10 μM, rifampicin 100 μM; 5 min
T2 sequence (Q9NPD5 1-702): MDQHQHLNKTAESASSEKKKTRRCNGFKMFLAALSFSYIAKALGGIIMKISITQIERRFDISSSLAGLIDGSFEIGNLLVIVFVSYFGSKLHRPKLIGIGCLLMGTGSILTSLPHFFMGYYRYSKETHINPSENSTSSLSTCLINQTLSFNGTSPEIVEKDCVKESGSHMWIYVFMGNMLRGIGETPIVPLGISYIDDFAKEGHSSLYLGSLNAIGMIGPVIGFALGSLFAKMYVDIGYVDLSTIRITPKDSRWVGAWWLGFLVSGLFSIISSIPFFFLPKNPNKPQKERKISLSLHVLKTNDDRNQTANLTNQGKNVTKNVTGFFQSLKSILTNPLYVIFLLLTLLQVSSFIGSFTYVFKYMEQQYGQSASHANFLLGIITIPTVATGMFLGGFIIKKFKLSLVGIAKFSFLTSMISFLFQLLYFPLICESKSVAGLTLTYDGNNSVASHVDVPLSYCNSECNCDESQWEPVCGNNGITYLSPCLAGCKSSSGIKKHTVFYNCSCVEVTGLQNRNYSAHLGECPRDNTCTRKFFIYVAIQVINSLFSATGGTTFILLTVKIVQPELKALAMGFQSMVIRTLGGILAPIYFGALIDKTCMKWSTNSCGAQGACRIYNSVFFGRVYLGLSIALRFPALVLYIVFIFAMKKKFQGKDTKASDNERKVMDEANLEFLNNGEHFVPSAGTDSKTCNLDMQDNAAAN
Method: (§2) A431 cells transfected with the empty vector were used as a negative control. All cell lines were cultured in Dulbecco's modified eagle medium supplemented with 10% fetal bovine serum, 2 mM L-glutamine, 100 units/mL penicillin and 100 µg/mL streptomycin. […] On the day of the experiment, growth medium was aspired and cells were washed with pre-warmed transport buffer (Hank's balanced salt solution supplemented with 10 mM N-2-hydroxyethylpiperazine-N-2-ethane sulfonic acid). […] Then the drug solutions were removed and cells were washed with pre-warmed transport buffer. […] For time dependency experiments, pre-warmed transport buffer was added and cells were incubated for 30 min. […] In all experiments, cell count was determined on separate 24-well tissue culture plates before or after each experiment. […] Each inhibition experiment was performed 2 times with 3 technical replicates each and radioactivity in cells was corrected for radioactive decay, normalized to 10^6 cells and expressed as percent of vector control (% control). The time dependency experiment was performed once with 3 technical replicates and radioactivity in cells was corrected for radioactive decay and expressed as percent of applied dose per 10^6 cells (%AD/10^6 cells). The concentration dependency experiment was performed once with 3 technical replicates and radioactivity in cells was corrected for radioactive decay. […]

OATP1B3 [10] = conditions: read-out: IC50 for inhibition of OATP1B3; cited from earlier work
MRP4 = tested on: MRP4; parameters: method as in PMID 21088257; conditions: cited from earlier work
OATP1B3 [11] = conditions: cited from earlier work
[12] = tested on: P‐glycoprotein (Pgp/ABCB1); parameters: method as in PMID 20304939, PMID 21088257; conditions: cited from earlier work
OATP1B1 (SLCO1B1) = biological target: T3, OATP1B1 (SLCO1B1) (Homo sapiens, UniProt Q9Y6L6); conditions: erlotinib 1 μM, cyclosporine A 10 μM, rifampicin 100 μM; 5 min
T3 sequence (Q9Y6L6 1-691): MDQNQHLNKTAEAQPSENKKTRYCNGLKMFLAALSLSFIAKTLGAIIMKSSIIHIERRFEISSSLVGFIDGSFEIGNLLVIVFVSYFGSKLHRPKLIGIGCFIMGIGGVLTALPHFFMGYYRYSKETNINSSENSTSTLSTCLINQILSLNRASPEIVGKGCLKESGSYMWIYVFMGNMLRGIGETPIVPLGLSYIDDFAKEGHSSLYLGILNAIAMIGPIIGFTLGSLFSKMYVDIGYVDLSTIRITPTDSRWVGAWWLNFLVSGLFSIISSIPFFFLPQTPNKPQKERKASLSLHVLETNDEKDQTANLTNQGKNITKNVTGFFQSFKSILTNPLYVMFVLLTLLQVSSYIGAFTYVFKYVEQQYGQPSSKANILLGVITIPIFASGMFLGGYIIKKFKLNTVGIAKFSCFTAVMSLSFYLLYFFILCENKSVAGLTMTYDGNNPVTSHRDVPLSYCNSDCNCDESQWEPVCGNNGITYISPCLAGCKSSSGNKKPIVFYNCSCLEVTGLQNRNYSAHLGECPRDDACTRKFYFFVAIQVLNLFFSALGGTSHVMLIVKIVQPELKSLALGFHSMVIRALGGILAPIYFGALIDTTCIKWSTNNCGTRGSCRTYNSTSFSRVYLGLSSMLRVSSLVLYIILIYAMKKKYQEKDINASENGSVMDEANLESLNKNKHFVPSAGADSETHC
Method: as §2

[13] = tested on: organic cation transporter 2 (OCT2/SLC22A2); parameters: method as in PMID 20304939, PMID 21088257; conditions: cited from earlier work
OATP2B1 [14] = tested on: OATP2B1; parameters: method as in PMID 28005438; conditions: cited from earlier work
[15] = parameters: method as in PMID 27036206; conditions: combination of erlotinib with rosuvastatin, 24 patients; cited from earlier work
[16] = 3 h after oral dosing, individual subjects
[17] = 4 h after oral dosing, individual subjects
[18] = individual subjects, oral 300 mg

## C#Cc1cccc(Nc2ncnc3cc(OCCOC)c(OCCO[11CH3])cc23)c1 [[^11C]erlotinib]
OATP2B1 (SLCO2B1)
  Michaelis constant (K m) of the saturable component of OATP2B1‐specific uptake: 0.324 ± 0.182 µM
OATP2B1 (SLCO2B1); <0.1 μM, time dependency experiment
  incubation time at maximum difference in uptake between OATP2B1 cells and the other cells: 10 to 15 min

## Cc1cc(C)c(NC(=O)CN(CC(=O)[O-])CC(=O)[O-])c(C)c1Br.Cc1cc(C)c(NC(=O)CN(CC(=O)[O-])CC(=O)[O-])c(C)c1Br.[99Tc+4] [[^99mTc]mebrofenin]
[1]
  increase in the efflux clearance from liver to blood: 517%
  reduction in CL uptake: 46%

## C#Cc1cccc(Nc2ncnc3cc(OCCOC)c(OCCOC)cc23)c1 [erlotinib]
[2]
  substrate of OAT3: substrate
OATP2B1 (SLCO2B1)
  Michaelis constant (K m) of the saturable component of OATP2B1‐specific uptake: 0.32 µM
  effect on [^11C]erlotinib uptake in OATP2B1 overexpressing cells: significantly decreased
OATP1B1 [3]
  transport by OATP1B1: not to be transported
[4]
  tolerability, adverse events: well tolerated by all subjects with no occurrence of adverse events
OATP2B1 [5]
  IC50: 30 nM
[6]
  logP: 4.19
OCT1 (SLC22A1)
  substrate of OCT1: not a substrate
[7]; [16]
  CPET, plasma concentration at time of the PET scan: 3.30 µM and 4.12 µM and 4.73 µM and 4.91 µM and 2.66 µM and 4.61 µM
  CPET,unbound: 0.12 µM and 0.20 µM and 0.10, 0.10 µM and 0.28 µM
[7]; [17]
  CPET, plasma concentration at time of the PET scan: 3.33 µM and 4.50 µM and 4.74 µM and 5.63 µM and 2.71 µM and 4.92 µM
  CPET,unbound: 0.13 µM and 0.23 µM and 0.10, 0.10 µM and 0.30 µM
[7]; both sexes, human, plasma, po, 300 mg, oral 300 mg, mean ± SD, read-out: Maximum plasma concentration (C max), mean
  Cmax: 4.6 ± 1.3 µM
[7]; [18]
  AUC0-∞: 68.1 µM·h and 94.0 µM·h and 72.0 µM·h and 102.8 µM·h and 36.6 µM·h and 187.8 µM·h
  T1/2, terminal elimination half-life: 14.1 h and 12.5 h and 9.2 h and 11.3 h and 5.4 h and 28.7 h
  Tmax: 2 h and 6 h and 4 h
[7]; individual subjects, oral 300 mg, read-out: Cmax
  Cmax: 3.51 µM and 5.03 µM and 4.74 µM and 6.43 µM and 2.83 µM and 4.92 µM
[7]; mean of values at 3 h and 4 h after oral intake of 300 mg
  plasma concentration at the time of the PET scan: 4.2 ± 1.0 µM
[7]; mean, oral 300 mg
  unbound plasma concentration at the time of the PET scan: 0.18 µM
[7]; oral 300 mg
  time of C max, median: 5 h
  time of C max, range: 2 to 6 h
OATP1B1 [8]
  IC50: 104000 nM
[9]
  substrate of BCRP: substrate
OAT2 (SLC22A7)
  substrate of OAT2: not a substrate
OATP1B3 (SLCO1B3)
  effect on [^11C]erlotinib uptake in OATP1B3 overexpressing cells: no effect
OATP1B3 [10]
  IC50: 1190 nM
MRP4
  transport by MRP4: not to be transported
OATP1B3 [11]
  transport by OATP1B3: not to be transported
[12]
  substrate of Pgp: substrate
OATP1B1 (SLCO1B1)
  effect on [^11C]erlotinib uptake in OATP1B1 overexpressing cells: no effect
[13]
  substrate of OCT2: substrate

## COc1cc2ncnc(Nc3ccc(F)c(Cl)c3)c2cc1OCCCN1CCOCC1 [gefitinib]
OATP2B1 [14]
  transport by OATP2B1: transported

## CO[C@H]1/C=C/O[C@@]2(C)Oc3c(C)c(O)c4c(O)c(c(/C=N/N5CCN(C)CC5)c(O)c4c3C2=O)NC(=O)/C(C)=C\C=C\[C@H](C)[C@H](O)[C@@H](C)[C@@H](O)[C@@H](C)[C@H](OC(C)=O)[C@@H]1C [rifampicin]
OATP2B1 (SLCO2B1)
  effect on [^11C]erlotinib uptake in OATP2B1 overexpressing cells: significantly decreased

## CC(C)c1nc(N(C)S(C)(=O)=O)nc(-c2ccc(F)cc2)c1/C=C/[C@@H](O)C[C@@H](O)CC(=O)O [rosuvastatin]
[15]
  rate of muscle toxicity: 34%
